Paper PMC2859821 (Molecular pharmaceutics, 2009)

Columns and labels:
[1] = statement in abstract; no data in this paper; cited from earlier work
three types of cells = conditions: cited from earlier work
HeLa cells = conditions: 100 nM nocodazole 16 h, 10 μM, 40 min; in contrast to interphase cells

5(6)-Carboxyfluorescein-R.I.-CKTat9 [Flu-R.I.-CKTat9]
cell surface-bound amount at 0 °C in KPBS versus PBS (HeLa cell surface): no difference

Acetyl-dC-dK-dR-dR-dR-dQ-dR-dR-dK-dK-dR-CONH2 [R.I.-CKTat9]
proteolytic stability [1]: proteolytically stable

polyarginine
reduction of cell-associated fluorescence by high potassium buffer (three types of cells): more than 90%

rhodamine-R.I.-CKTat9 [Rho-R.I.-CKTat9]
uptake by HeLa cells arrested in M phase (microscopy) (HeLa cells): did not take up
